Measured values: paper PMC7380166, “How to Study the Metabolism of New Psychoactive Substances for the Purpose of Toxicological Screenings—A Follow-Up Study Comparing Pooled Human Liver S9, HepaRG Cells, and Zebrafish Larvae” (Frontiers in Chemistry, 2020)

Tests used:
[1] = biological target: T1, CYP1A2 (Homo sapiens, UniProt P05177); test: Monooxygenases activity screening, CYP1A2; format: in vitro ADME; set-up: key: +, detected; –: −, not detected; conditions: 25 μM 4F-MDMB-BINACA, 50 pmol/ml enzyme, 30 min, 37°C, duplicate
T1 construct: purchased Corning; host or cells: baculovirus-transfected insect cell microsomes (Supersomes)
T1 sequence (P05177 1-516): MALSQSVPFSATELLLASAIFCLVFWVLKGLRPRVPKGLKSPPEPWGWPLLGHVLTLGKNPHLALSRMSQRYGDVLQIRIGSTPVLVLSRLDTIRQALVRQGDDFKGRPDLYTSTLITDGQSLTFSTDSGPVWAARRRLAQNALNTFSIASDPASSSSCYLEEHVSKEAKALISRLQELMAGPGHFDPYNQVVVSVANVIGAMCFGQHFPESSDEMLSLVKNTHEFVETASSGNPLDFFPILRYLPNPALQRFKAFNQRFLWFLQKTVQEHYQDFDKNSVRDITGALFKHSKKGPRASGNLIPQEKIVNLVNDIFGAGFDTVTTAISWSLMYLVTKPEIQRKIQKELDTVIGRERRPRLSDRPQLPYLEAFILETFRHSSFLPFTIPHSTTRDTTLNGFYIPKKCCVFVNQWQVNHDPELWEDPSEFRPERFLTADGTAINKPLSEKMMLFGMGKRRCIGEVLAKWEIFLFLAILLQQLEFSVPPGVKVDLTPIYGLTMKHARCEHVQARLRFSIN
Protocol: (§1) According to an established protocol (Wagmann et al., [2016]), the final volume per reaction tube was 50 μl with a final 4F-MDMB-BINACA concentration of 25 μM and enzyme concentrations of 50 pmol/ml for CYP1A2, CYP2A6, CYP2B6, CYP2C8, CYP2C9, CYP2C19, CYP2D6, CYP2E1, CYP3A4, and CYP3A5, respectively, or 0.25 mg protein/ml for FMO3. Furthermore, the reaction mixture contained 90 mM phosphate buffer (pH 7.4), superoxide dismutase (200 U/ml), isocitrate (5 mM), MgCl2 (5 mM), isocitrate dehydrogenase (0.5 U/ml), and NADP^+ (1.2 mM). The phosphate buffer was replaced with Tris buffer (90 mM) for incubations with CYP2A6 and CYP2C9 according to the manufacturer's recommendation. All incubations were performed at 37°C for 30 min and terminated by adding 50 μl of ice-cold acetonitrile. Afterwards, the mixtures were centrifuged at 18,407 × g for 5 min, 70 μl of the supernatants was transferred into autosampler vials, and 1 μl was injected onto the LC-HRMS/MS system. Positive control incubations were performed with pHLM (1 mg microsomal protein/ml), and negative controls without enzyme were prepared to identify non-metabolically formed compounds. All incubations were done in duplicate.

[2] = biological target: T2, CYP2C19 (Homo sapiens, UniProt P33261); test: Monooxygenases activity screening, CYP2C19; format: in vitro ADME; set-up: key: +, detected; –: −, not detected; conditions: 25 μM 4F-MDMB-BINACA, 50 pmol/ml enzyme, 30 min, 37°C, duplicate
T2 construct: purchased Corning; host or cells: baculovirus-transfected insect cell microsomes (Supersomes)
Protocol: as §1

[3] = biological target: T3, CYP2D6 (Homo sapiens, UniProt P10635); test: Monooxygenases activity screening, CYP2D6; format: in vitro ADME; set-up: key: +, detected; –: −, not detected; conditions: 25 μM 4F-MDMB-BINACA, 50 pmol/ml enzyme, 30 min, 37°C, duplicate
T3 construct: purchased Corning; host or cells: baculovirus-transfected insect cell microsomes (Supersomes)
Protocol: as §1

[4] = biological target: T4, CYP3A4 (Homo sapiens, UniProt P08684); test: Monooxygenases activity screening, CYP3A4; format: in vitro ADME; set-up: key: +, detected; –: −, not detected; conditions: 25 μM 4F-MDMB-BINACA, 50 pmol/ml enzyme, 30 min, 37°C, duplicate
T4 construct: purchased Corning; host or cells: baculovirus-transfected insect cell microsomes (Supersomes)
Protocol: as §1

[5] = biological target: T5, hCES1c (Homo sapiens, UniProt P23141); test: Esterases activity screening, hCES1c; format: in vitro ADME; set-up: key: +, detected; –: −, not detected; conditions: 100 μM 4F-MDMB-BINACA, 0.2 mg protein/ml, duplicate
T5 construct: purchased Corning
T5 sequence (P23141 18-566 isoform P23141-3 limits assumed): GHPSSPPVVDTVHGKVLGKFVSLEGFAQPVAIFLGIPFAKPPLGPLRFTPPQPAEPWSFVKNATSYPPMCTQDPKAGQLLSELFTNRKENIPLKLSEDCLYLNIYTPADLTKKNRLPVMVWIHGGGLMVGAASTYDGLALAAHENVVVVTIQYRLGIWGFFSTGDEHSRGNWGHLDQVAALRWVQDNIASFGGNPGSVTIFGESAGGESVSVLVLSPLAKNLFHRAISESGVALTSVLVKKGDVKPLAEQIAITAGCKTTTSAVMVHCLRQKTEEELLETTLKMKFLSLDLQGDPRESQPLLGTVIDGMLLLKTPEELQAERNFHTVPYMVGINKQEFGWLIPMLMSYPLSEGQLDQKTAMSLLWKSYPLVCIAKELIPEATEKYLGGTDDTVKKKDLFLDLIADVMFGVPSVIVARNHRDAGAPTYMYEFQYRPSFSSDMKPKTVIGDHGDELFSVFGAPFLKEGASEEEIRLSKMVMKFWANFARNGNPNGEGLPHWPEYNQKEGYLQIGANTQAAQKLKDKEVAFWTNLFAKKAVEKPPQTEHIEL
Protocol: (§2) Experiments were performed in accordance with a previous study (Meyer et al., [2015]) with minor modifications. The final volume per reaction tube was 100 μl with a final 4F-MDMB-BINACA concentration of 100 μM and enzyme concentration of 0.2 mg protein/ml for hCES1b, hCES1c, and hCES2. Incubations with pHLM and pHLS9 (0.2 mg protein/ml, each) were performed in a similar manner. Additionally, incubations with human plasma (50 μl pooled human plasma, 40 μl phosphate buffer, and 10 μl substrate) were performed. The reactions were started by adding the enzyme-containing preparation and terminated with an equal volume of ice-cold acetonitrile containing diazepam-d5 (100 μM) as an internal standard. Only plasma incubations were terminated by addition of a three-fold volume of ice-cold acetonitrile. The reaction mixtures were centrifuged at 18,407 × g for 15 min, and then supernatants were transferred to autosampler vials, and 5 μl was injected onto the LC-HRMS/MS system. Negative control incubations without enzyme were prepared to identify non-metabolically formed compounds. All incubations were done in duplicate.

[6] = Esterases activity screening, pHLM; format: in vitro ADME, human; set-up: key: +, detected; –: −, not detected; conditions: 100 μM 4F-MDMB-BINACA, 0.2 mg protein/ml, duplicate
Protocol: as §2

[7] = Esterases activity screening, pHLS9; format: in vitro ADME, human; set-up: key: +, detected; –: −, not detected; conditions: 100 μM 4F-MDMB-BINACA, 0.2 mg protein/ml, duplicate
Protocol: as §2

[8] = Esterases activity screening, pooled human blood plasma; format: in vitro ADME; set-up: key: +, detected; –, not detected; conditions: 100 μM 4F-MDMB-BINACA, duplicate
Protocol: as §2

T3 sequence (P10635 whole entry): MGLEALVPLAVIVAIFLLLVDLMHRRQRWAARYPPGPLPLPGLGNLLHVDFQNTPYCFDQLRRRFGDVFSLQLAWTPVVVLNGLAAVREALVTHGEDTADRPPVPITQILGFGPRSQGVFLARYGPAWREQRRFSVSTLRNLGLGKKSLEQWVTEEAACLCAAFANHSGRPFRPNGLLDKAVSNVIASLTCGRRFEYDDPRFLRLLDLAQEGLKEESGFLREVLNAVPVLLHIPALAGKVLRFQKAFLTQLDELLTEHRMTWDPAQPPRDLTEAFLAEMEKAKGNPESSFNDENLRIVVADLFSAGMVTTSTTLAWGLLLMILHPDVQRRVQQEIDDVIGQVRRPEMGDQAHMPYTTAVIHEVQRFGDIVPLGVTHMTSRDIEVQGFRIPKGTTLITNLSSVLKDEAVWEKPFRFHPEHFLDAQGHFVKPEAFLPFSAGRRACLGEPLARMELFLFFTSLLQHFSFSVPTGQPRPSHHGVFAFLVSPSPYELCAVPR
T4 sequence (P08684 whole entry): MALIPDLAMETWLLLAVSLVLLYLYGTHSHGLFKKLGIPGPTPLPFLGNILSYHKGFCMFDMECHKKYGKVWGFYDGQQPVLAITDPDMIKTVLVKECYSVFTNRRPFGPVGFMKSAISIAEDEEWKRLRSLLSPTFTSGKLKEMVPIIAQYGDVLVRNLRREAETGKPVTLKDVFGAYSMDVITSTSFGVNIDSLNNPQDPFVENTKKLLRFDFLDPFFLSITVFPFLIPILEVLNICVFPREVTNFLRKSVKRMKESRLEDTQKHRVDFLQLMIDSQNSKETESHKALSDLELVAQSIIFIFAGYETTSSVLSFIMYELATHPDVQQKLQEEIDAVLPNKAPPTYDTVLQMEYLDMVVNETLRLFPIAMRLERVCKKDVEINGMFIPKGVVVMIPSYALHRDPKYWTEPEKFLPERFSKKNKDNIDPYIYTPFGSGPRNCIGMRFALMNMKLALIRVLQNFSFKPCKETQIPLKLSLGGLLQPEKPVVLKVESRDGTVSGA
T2 sequence (P33261 whole entry): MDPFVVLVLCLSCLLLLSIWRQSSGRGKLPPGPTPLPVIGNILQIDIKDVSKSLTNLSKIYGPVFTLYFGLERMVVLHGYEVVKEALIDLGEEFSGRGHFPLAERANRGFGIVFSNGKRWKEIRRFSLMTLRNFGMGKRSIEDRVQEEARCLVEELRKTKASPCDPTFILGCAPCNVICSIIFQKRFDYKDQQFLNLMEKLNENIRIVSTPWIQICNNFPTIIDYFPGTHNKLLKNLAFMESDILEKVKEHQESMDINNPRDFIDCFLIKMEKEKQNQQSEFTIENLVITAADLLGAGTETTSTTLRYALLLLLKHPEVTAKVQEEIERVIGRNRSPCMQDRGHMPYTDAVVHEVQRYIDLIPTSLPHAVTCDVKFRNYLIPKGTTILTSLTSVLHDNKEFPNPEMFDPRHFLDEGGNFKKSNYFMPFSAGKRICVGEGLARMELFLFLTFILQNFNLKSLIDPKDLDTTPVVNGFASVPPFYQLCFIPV

Question: With `O=C(O)c1nn(CCCCF)c2ccccc12` [MB1] as the compound, how does the “Detection of metabolite in incubation with CYP1A2” value [1] read?
Answer: –

Question: What about the “Detection of metabolite in incubation with CYP2C19” value [2] of the same compound?
Answer: –

Question: What about the “Detection of metabolite in incubation with CYP2D6” value [3] of the same compound?
Answer: –

Question: What about the “Detection of metabolite in incubation with CYP3A4” value [4] of the same compound?
Answer: –

Question: What about the “Detection of metabolite in incubation with hCES1c” value [5] of the same compound?
Answer: +

Question: And the “Detection of metabolite in incubation with pHLM” value [6]?
Answer: +

Question: What about the “Detection of metabolite in incubation with pHLS9” value [7] of the same compound?
Answer: +

Question: What about the “Detection of metabolite in incubation with pHBP” value [8] of the same compound?
Answer: –

Question: Which results are given for `COC(=O)[C@@H](NC(=O)c1n[nH]c2ccccc12)C(C)(C)C` [MB4]?
Answer: Detection of metabolite in incubation with CYP1A2 [1]: +; Detection of metabolite in incubation with CYP2C19 [2]: +; Detection of metabolite in incubation with CYP2D6 [3]: –; Detection of metabolite in incubation with CYP3A4 [4]: +

Question: What does the source list for `CC(C)(C)C(NC(=O)c1nn(CCCCF)c2ccccc12)C(=O)O` (stereo not shown) [MB8]?
Answer: Detection of metabolite in incubation with CYP1A2 [1]: –; Detection of metabolite in incubation with CYP2C19 [2]: –; Detection of metabolite in incubation with CYP2D6 [3]: –; Detection of metabolite in incubation with CYP3A4 [4]: –; Detection of metabolite in incubation with hCES1c [5]: +; Detection of metabolite in incubation with pHLM [6]: +; Detection of metabolite in incubation with pHLS9 [7]: +; Detection of metabolite in incubation with pHBP [8]: –

Question: For `COC(=O)[C@@H](NC(=O)c1nn(CCCCO)c2ccccc12)C(C)(C)C` [MB11], which “Detection of metabolite in incubation with CYP1A2” value [1] is on record?
Answer: –

Question: And the “Detection of metabolite in incubation with CYP2C19” value [2]?
Answer: –

Question: And the “Detection of metabolite in incubation with CYP2D6” value [3]?
Answer: –

Question: And the “Detection of metabolite in incubation with CYP3A4” value [4]?
Answer: –

Question: What does the source list for `COC(=O)[C@@H](NC(=O)c1nn(CCCCF)c2ccccc12)C(C)(C)CO` [MB16]?
Answer: Detection of metabolite in incubation with CYP1A2 [1]: –; Detection of metabolite in incubation with CYP2C19 [2]: –; Detection of metabolite in incubation with CYP2D6 [3]: –; Detection of metabolite in incubation with CYP3A4 [4]: –
